Source: US20100119483A1, “PEPTIDE VIRAL ENTRY INHIBITORS” (Schering Corporation, priority 2004, published 2010)
Values joined by “and” are separate entries in the source; they are usually repeats but may differ in a detail not shown here. Equal entries are not always repeated.

What was measured:
HCV pseudoparticles = test: HCV pseudoparticle (HCVpp) entry assay in Huh7 hepatoma cells, luciferase readout; assay type: cell-based, hepatitis C virus; details: for luciferase units, HCV entry / viral entry as a percentage of the uninhibited control: duplicates; for % of control at ~30 uM: percentage of hepatitis C virus cellular entry at 30 μM peptide vs uninhibited control; for viral entry as a percentage of the uninhibited control: HCV entry; for HCVpp % inh: peptide library screen, first screened at 100 ug/ml, cell entry inhibition vs uninhibited control
Procedure, shortened: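 Huh7 cells were pre-treated with peptide for 1 h at 37 °C before exposure to HCV E1/E2-pseudotyped HIV luciferase particles made in 293T cells, followed by 72 h culture and luciferase readout. Peptides were tested at 10 points, 3-fold, from 100 ug/ml; particles lacking envelope served as non-specific entry control.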

[1] = tested on: amphotropic murine leukemia virus; test: AMLV pseudotyped virus entry counter-screen, same infection protocol; assay type: cell-based; details: for luciferase units, AMLV entry: duplicates; for AMLVpp % inh: peptide library screen, cell entry inhibition vs uninhibited control
Method: Infection of hepatoma cell lines with HCV pseudotype particles and screen for inhibitory peptides. The hepatoma cells, Huh7, was seeded at 8000 cells in 90 ul medium in 96-well plate. In the case of the inhibitor screen, the inhibitor was incubated with cells for one hour at 37° C. and then 50 ul viral supernatant was added to the cells 24 hours after seeding. The viral stock was pre-tittered and diluted to yield approximately 10,000 to 20,000 RLU. The cells were incubated at 37° C. with 5% CO2 for additional 72 hours and were harvested for luciferase assay. Peptide stocks were prepared in 100% DMSO at 10 mg/ml and were first screened at 100 ug/ml and then a dose responsive curve was generated with 10 points 3-fold titration starting from 100 ug/ml.
The specificity of the peptides were counter-screened with AMLV and HIV pseudotyped viruses using the same infection protocol.

[2] = 0.1 nM of peptide (printed for three rows), two values per peptide and row
[3] = 0.3 nM of peptide, two values per peptide
[4] = 1 nM of peptide, two values per peptide
[5] = 3 nM of peptide, two values per peptide
[6] = 10 nM of peptide, two values per peptide
[7] = 0.01371742 uM of peptide (three lines)
[8] = 30 nM of peptide, two values per peptide
[9] = 100 nM of peptide, two values per peptide
[10] = 300 nM of peptide, two values per peptide

| Substance | luciferase units, HCV entry (HCV pseudoparticles; 0.04115226 uM of peptide) | luciferase units, HCV entry (HCV pseudoparticles; 0.1234568 uM of peptide) | luciferase units, HCV entry (HCV pseudoparticles; 0.3703704 uM of peptide) | luciferase units, HCV entry (HCV pseudoparticles; 1.111111 uM of peptide) | luciferase units, HCV entry (HCV pseudoparticles; 10 uM of peptide) | luciferase units, HCV entry (HCV pseudoparticles; 30 uM of peptide) | % of control at ~30 uM (HCV pseudoparticles) [%] | luciferase units, AMLV entry ([1]; 0.04115226 uM of peptide) | luciferase units, AMLV entry ([1]; 0.1234568 uM of peptide) | luciferase units, AMLV entry ([1]; 0.3703704 uM of peptide) | luciferase units, AMLV entry ([1]; 1.111111 uM of peptide) | luciferase units, AMLV entry ([1]; 3.333333 uM of peptide) | luciferase units, AMLV entry ([1]; 30 uM of peptide) | HCVpp % inh (HCV pseudoparticles) [%] | AMLVpp % inh [1] [%] | other results |
| --- | --- | --- | --- | --- | --- | --- | --- | --- | --- | --- | --- | --- | --- | --- | --- | --- |
| A-I-K-W-E-Y-V-L-L-L-F-L-L [SEQ ID NO: 100] | 7066 luciferase units and 7585 luciferase units | 4241 luciferase units and 3590 luciferase units | 4161 luciferase units and 2767 luciferase units | 3041 luciferase units and 2870 luciferase units | 1538 luciferase units and 1360 luciferase units | 1262 luciferase units and 1073 luciferase units | 6 | 39784 luciferase units and 45324 luciferase units | 46954 luciferase units and 44234 luciferase units | 42008 luciferase units and 39907 luciferase units | 45723 luciferase units and 43633 luciferase units | 70934 luciferase units and 59407 luciferase units | 76883 luciferase units and 56072 luciferase units | – | – | % control (HCVpp entry), lysine scanning (HCV pseudoparticles; [2]): 110 % control and 85 % control and 115 % control and 83 % control and 92 % control and 111 % control; % control (HCVpp entry), lysine scanning (HCV pseudoparticles; [3]): 88 % control and 75 % control; % control (HCVpp entry), lysine scanning (HCV pseudoparticles; [4]): 76 % control and 68 % control; % control (HCVpp entry), lysine scanning (HCV pseudoparticles; [5]): 61 % control and 83 % control; % control (HCVpp entry), lysine scanning (HCV pseudoparticles; [6]): 62 % control and 58 % control; luciferase units, HCV entry (HCV pseudoparticles; [7]): 9526 luciferase units and 11368 luciferase units and 13637 luciferase units and 13231 luciferase units and 14358 luciferase units and 15831 luciferase units; % control (HCVpp entry), lysine scanning (HCV pseudoparticles; [8]): 53 % control and 44 % control; % control (HCVpp entry), lysine scanning (HCV pseudoparticles; [9]): 31 % control and 19 % control; % control (HCVpp entry), lysine scanning (HCV pseudoparticles; [10]): 32 % control and 29 % control; luciferase units, HCV entry (HCV pseudoparticles; 3.333333 uM of peptide): 4131 luciferase units and 3158 luciferase units; luciferase units, AMLV entry ([1]; 10 uM of peptide): 135633 luciferase units and 74847 luciferase units |
| A-I-K-W-E-Y-V-L-L-L-F-L-L [SEQ ID NO: 81] | 3138 luciferase units and 5487 luciferase units | 1665 luciferase units and 1759 luciferase units | 2133 luciferase units and 2617 luciferase units | 2065 luciferase units and 2449 luciferase units | 2584 luciferase units and 3853 luciferase units | 990 luciferase units and 667 luciferase units | 17 | 40104 luciferase units and 51496 luciferase units | 51789 luciferase units and 49401 luciferase units | 48861 luciferase units and 55221 luciferase units | 54439 luciferase units and 53032 luciferase units | 62658 luciferase units and 51388 luciferase units | 86600 luciferase units and 64937 luciferase units | – | – | % control (HCVpp entry), glycine scanning (HCV pseudoparticles; 0.00003 uM of peptide, two values per peptide and row): 86 % control and 77 % control and 104 % control and 134 % control; % control (HCVpp entry), glycine scanning (HCV pseudoparticles; 0.0001 uM of peptide, two values per peptide): 103 % control and 79 % control; % control (HCVpp entry), glycine scanning (HCV pseudoparticles; 0.0003 uM of peptide, two values per peptide): 90 % control and 105 % control; % control (HCVpp entry), glycine scanning (HCV pseudoparticles; 0.001 uM of peptide, two values per peptide): 94 % control and 114 % control; % control (HCVpp entry), glycine scanning (HCV pseudoparticles; 0.003 uM of peptide, two values per peptide): 82 % control and 66 % control; % control (HCVpp entry), glycine scanning (HCV pseudoparticles; 0.01 uM of peptide, two values per peptide): 70 % control and 71 % control; % control (HCVpp entry), glycine scanning (HCV pseudoparticles; 0.03 uM of peptide, two values per peptide): 51 % control and 38 % control; % control (HCVpp entry), glycine scanning (HCV pseudoparticles; 0.3 uM of peptide, two values per peptide): 39 % control and 31 % control; % control (HCVpp entry), glycine scanning (HCV pseudoparticles; 10 uM of peptide, two values per peptide): 22 % control and 34 % control; % control (HCVpp entry), glycine scanning (HCV pseudoparticles; 30 uM of peptide, two values per peptide): 30 % control and 26 % control; viral entry as a percentage of the uninhibited control (HCV pseudoparticles; 0.1 nM of peptide (three lines), 0.0001 µM): 79% and 103% and 77% and 86% and 134% and 104%; viral entry as a percentage of the uninhibited control (HCV pseudoparticles; 0.3 nM of peptide, 0.0003 µM): 105% and 90%; viral entry as a percentage of the uninhibited control (HCV pseudoparticles; 1 nM of peptide, 0.001 µM): 114% and 94%; viral entry as a percentage of the uninhibited control (HCV pseudoparticles; 3 nM of peptide, 0.003 µM): 66% and 82%; viral entry as a percentage of the uninhibited control (HCV pseudoparticles; 10 nM of peptide, 0.01 µM): 71% and 70%; viral entry as a percentage of the uninhibited control (HCV pseudoparticles; 30 nM of peptide, 0.03 µM): 38% and 51%; viral entry as a percentage of the uninhibited control (HCV pseudoparticles; 300 nM of peptide, 0.3 µM): 31% and 39%; viral entry as a percentage of the uninhibited control (HCV pseudoparticles; 10000 nM of peptide, 10 µM): 34% and 22%; viral entry as a percentage of the uninhibited control (HCV pseudoparticles; 30000 nM of peptide, 30 µM): 26% and 30%; luciferase units, AMLV entry [1, 7]: 46029 luciferase units and 39655 luciferase units and 41740 luciferase units and 42548 luciferase units and 45150 luciferase units and 45203 luciferase units |
| E-L-S-P-L-L-L-S-T-T-E-W-Q-V-L-P [SEQ ID NO: 70] | – | – | – | – | – | – | – | – | – | – | – | – | – | 10 | 44 | – |
| E-A-T-Y-T-K-C-G-S-G-P-W-L-T-P-R (EATYTKCGSGPWLTPR; HCV peptide) [SEQ ID NO: 60] | – | – | – | – | – | – | – | – | – | – | – | – | – | 13 | 17 | – |
| A-L-T-P-T-L-A-A-R-N-A-S-V-P-T-T [SEQ ID NO: 10] | – | – | – | – | – | – | – | – | – | – | – | – | – | 53 | 1 | – |
| A-Q-V-C-G-P-V-Y-C-F-T-P-S-P-V-V [SEQ ID NO: 47] | – | – | – | – | – | – | – | – | – | – | – | – | – | 40 | −8 | – |
| A-I-K-W-E-Y-V-L-L-F-L-L-L [SEQ ID NO: 98] | 6486 luciferase units and 6677 luciferase units | 4583 luciferase units and 6873 luciferase units | 2830 luciferase units and 5272 luciferase units | 3285 luciferase units and 2555 luciferase units | 2186 luciferase units and 2352 luciferase units | 1938 luciferase units and 2251 luciferase units | 10 | 41463 luciferase units and 41610 luciferase units | 45455 luciferase units and 45030 luciferase units | 42748 luciferase units and 48710 luciferase units | 45508 luciferase units and 44147 luciferase units | 59984 luciferase units and 48300 luciferase units | 81103 luciferase units and 70832 luciferase units | – | – | % control (HCVpp entry), proline scanning (HCV pseudoparticles; [2]): 85 % control and 77 % control and 86 % control and 109 % control and 95 % control; % control (HCVpp entry), proline scanning (HCV pseudoparticles; [3]): 90 % control and 68 % control; % control (HCVpp entry), proline scanning (HCV pseudoparticles; [4]): 93 % control and 94 % control; % control (HCVpp entry), proline scanning (HCV pseudoparticles; [5]): 86 % control and 52 % control; % control (HCVpp entry), proline scanning (HCV pseudoparticles; [6]): 47 % control and 50 % control; luciferase units, HCV entry (HCV pseudoparticles; [7]): 9747 luciferase units and 12623 luciferase units and 16027 luciferase units and 17299 luciferase units and 19079 luciferase units and 17575 luciferase units; % control (HCVpp entry), proline scanning (HCV pseudoparticles; [8]): 41 % control and 35 % control; % control (HCVpp entry), proline scanning (HCV pseudoparticles; [9]): 31 % control and 41 % control; % control (HCVpp entry), proline scanning (HCV pseudoparticles; [10]): 21 % control and 29 % control; luciferase units, HCV entry (HCV pseudoparticles; 3.333333 uM of peptide): 2647 luciferase units and 2056 luciferase units; % control (HCVpp entry), proline scanning (HCV pseudoparticles; 10000 nM of peptide, two values per peptide): 27 % control and 24 % control; luciferase units, AMLV entry [1, 7]: 44492 luciferase units and 44531 luciferase units and 47406 luciferase units and 49869 luciferase units and 51067 luciferase units and 61382 luciferase units; luciferase units, AMLV entry ([1]; 10 uM of peptide): 111324 luciferase units and 59835 luciferase units |
| I-F-K-V-R-M-Y-V-G-G-V-E-H-R-L-E (IFKVRMYVGGVEHRLE; HCV peptide) [SEQ ID NO: 65] | – | – | – | – | – | – | – | – | – | – | – | – | – | 19 | −62 | – |
